Columns and labels:
[1] = biological target: T1, GNAQ (WT) (Homo sapiens, UniProt P50148); assay: SRE luciferase reporter gene-HEK293 cell line, GNAQ (WT); assay type: cell-based; conditions: Cell type WT, 20% FBS induction, read-out: GNAQ inhibitory rate; for inhibition at 0.9 µM: analytical concentration 900 nM; for inhibition at 2.7 µM: analytical concentration 2,700 nM; for inhibition at 8.1 µM: analytical concentration 8,100 nM
T1 construct: BPS Bioscience (parental reporter cell line) 60406
T1 sequence (P50148 1-359): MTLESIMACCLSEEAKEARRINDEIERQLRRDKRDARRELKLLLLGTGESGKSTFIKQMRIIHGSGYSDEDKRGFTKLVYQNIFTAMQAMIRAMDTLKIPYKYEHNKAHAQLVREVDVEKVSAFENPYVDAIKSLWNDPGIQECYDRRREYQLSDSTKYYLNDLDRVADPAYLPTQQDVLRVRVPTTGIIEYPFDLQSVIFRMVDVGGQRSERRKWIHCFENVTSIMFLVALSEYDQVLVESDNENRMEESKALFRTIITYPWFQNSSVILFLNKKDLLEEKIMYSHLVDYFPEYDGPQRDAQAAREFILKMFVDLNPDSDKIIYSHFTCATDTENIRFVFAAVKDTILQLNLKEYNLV
Experimental: 7.5×10^4 SRE-293-GNAQ (WT) or SRE-293-GNAQ (T96S) cell lines were seeded in a 24-well plate and cultured in a carbon dioxide incubator at 37° C. SRE-293-GNAQ (WT) or SRE-293-GNAQ (T96S) cell lines was derived from additionally transfecting SRE Reporter—HEK293 Recombinant Cell Line (ERK Pathway) (Catalog number: 60406; BPS Bioscience) cells with an expression vector separately expressing GNAQ (WT) or GNAQ (T96S), and screening a stable expression cell line by the antibiotic, geneticin (type number 10131035; Thermo Fisher Scientific). GNAQ (WT) or GNAQ (T96) expression vector was derived from gene synthesis and point mutation modification of GenScript company's customized services.
After 48 hours of culture, the culture medium in the 24-well plate was replaced with minimal essential medium (MEM) containing only 0.1% fetal bovine serum (FBS) and the cells were cultured overnight.
After overnight culture, the compound to be tested was added to the cells and reacted for 2 hours, and the medium at this point was still MEM medium containing only 0.1% fetal bovine serum. After reacting with the compound to be tested for 2 hours, fetal bovine serum at a final concentration of 20% was added to the cells and reacted for at least 4 hours. After the reaction, the supernatant was removed. Next, 100 μL of cell lysis reagent CelLytic M Cell Lysis Reagent (Catalog number: C2978; Sigma) was added to the cells and aspirated repeatedly several times to form a cell lysate solution with the cells. The cell lysate solution was collected in a microcentrifuge tube and centrifuged at a high speed of 14,000 rpm for 5 minutes. After that, 30 μL of supernatant was taken out and placed in a 96-well white plate for luminescence analysis, and 30 μL of firefly luminescence analysis reagent (Catalog No. E1501; Promega) diluted 3-fold was added and mixed well, and then luminescence detection was performed with a plate enzyme immunoassay analyzer (ELISA reader) to evaluate the effect of the compound to be tested on MAPK signaling induced by GNAQ through the expression of the firefly luciferase reporter gene.
In order to confirm the effect of the compounds on MAPK signaling induced by GNAQ, the screened SRE-HEK293 cells capable of expressing exogenous GNAQ (WT) and GNAQ (T96S) genes were subjected to overnight serum starvation, and 2 hours before induction with 20% fetal bovine serum, the compound to be tested (one of Compound 1 to Compound 15 prepared above) was added to the cells, and after serum induction, the expression of the firefly luciferase reporter gene was measured. Through the above steps, the inhibition of the compound to be tested on GNAQ expression could be evaluated through the expression of the reporter gene in cells.

[2] = system: MCF-7 GNAQ (T96S) cells; assay: Inhibition of growth of mammary gland cancer cells MCF-7 GNAQ (T96S) (PrestoBlue); assay type: cell-based; conditions: Homo sapiens, MCF7, 168 h, 7 days culture, 2% fetal bovine serum, read-out: Inhibitory activity (evaluated by IC50)
Experimental: Human mammary gland cancer cells, MCF-7 cells and MCF-7 GNAQ (T96S) cells (MCF-7 cells expressing GNAQ (T96S) after GNAQ gene deletion) were cultured in MEM medium.
1×10^3 of the cells mentioned above were seeded in a 96-well plate and cultured overnight (at least 16 hours) in a carbon dioxide incubator.
After overnight incubation, the supernatant was removed. Next, after 200 μL of cell culture medium (containing 2% fetal bovine serum) containing different concentrations of test compound was added to each well of the 96-well plate, the 96-well plate was placed in a 5% carbon dioxide incubator at 37° C. for 7 days further culture. After that, an additional 30 μL of diluted PrestoBlue™ Cell Viability Reagent (Catalog Number: A13261; Thermo Fisher Scientific) (4 μL stock solution and 26 μL culture medium) was added to each well of the 96-well plate and the reaction was continued for further about 1 hour.
Finally, the fluorescence value at the wavelength of 535/615 nm of each well was read with a plate enzyme immunoassay analyzer, and the inhibitory rate of the compound on mammary gland cancer cells were calculated using the following formula.
Moreover, the half maximal inhibitory concentration (IC50) of the compound on the growth of mammary gland cancer cells was calculated with the inhibitory rate of the compound on mammary gland cancer cells at each concentration through the online half maximal inhibitory concentration (IC50) calculation software, IC50 Calculator, provided by AAT Bioquest company on its website (https://www.aatbio.com/tools/ic50-calculator).
Finally, the inhibition of the compound on the growth of mammary gland cancer cells was evaluated by the calculated half maximal inhibitory concentration (IC50) of the compound on the growth of mammary gland cancer cells.
The inhibition of the compound on the growth of breast cancer cells was evaluated by the half maximal inhibitory concentration (IC50) of the compound (one of Compound 1 to Compound 15 prepared above) on the growth of mammary gland cancer cells through the human mammary gland cancer cell line MCF-7 and the human mammary gland cancer cell line MCF-7 GNAQ (T96S) expressing the mutated gene.

In the case of `O=C(Nc1ccc(-c2ccnc(-c3cccc(C(F)(F)F)c3)n2)cc1)Nc1cc(Cl)nc(Cl)c1` [Compound 7], the inhibition at 0.9 µM [1] is reported as < 10%, the inhibition at 2.7 µM [1] is reported as < 10% and the inhibition at 8.1 µM [1] is reported as 10 to 39%. For the same compound, the IC50 [2] was 0.31 to 2.5 µM.
`N#Cc1cccc(-c2nccc(-c3cccc(NC(=O)Nc4cc(Cl)nc(Cl)c4)c3)n2)c1` [Compound 3] was tested, and the inhibition at 0.9 µM [1] was 10 to 39%, the inhibition at 2.7 µM [1] was 10 to 39% and the inhibition at 8.1 µM [1] was > 70%. It also gave an IC50 [2] of 0.31 to 2.5 µM.
For `O=C(Nc1cccc(-c2ccnc(-c3cccc(C(F)(F)F)c3)n2)c1)Nc1cc(Cl)nc(Cl)c1` [Compound 2], the inhibition at 0.9 µM [1] was 10 to 39%, the inhibition at 2.7 µM [1] was 10 to 39% and the inhibition at 8.1 µM [1] was > 70%. It also gave an IC50 [2] of 0.31 to 2.5 µM.
In the case of `O=C(Nc1ccc(-c2ccnc(-c3cccc(C(F)(F)F)c3)n2)cc1)Nc1ccc(Cl)c(C(F)(F)F)c1` [Compound 8], the inhibition at 0.9 µM [1] is reported as < 10%, the inhibition at 2.7 µM [1] is reported as < 10% and the inhibition at 8.1 µM [1] is reported as < 10%. The IC50 [2] was 0.31 to 2.5 µM.
With `O=C(Nc1cccc(-c2cccc(-c3ccncc3)n2)c1)Nc1cc(Cl)nc(Cl)c1` [Compound 13] the inhibition at 0.9 µM [1] was 10 to 39%, the inhibition at 2.7 µM [1] was 40 to 70% and the inhibition at 8.1 µM [1] was > 70%. It also gave an IC50 [2] of 0.31 to 2.5 µM.
With `O=C(Nc1cccc(-c2cc(-c3cccc(C(F)(F)F)c3)ncn2)c1)Nc1cc(Cl)nc(Cl)c1` [Compound 14] the inhibition at 0.9 µM [1] was < 10%, the inhibition at 2.7 µM [1] was 10 to 39% and the inhibition at 8.1 µM [1] was 40 to 70%. The IC50 [2] was < 0.31 µM.
In the case of `FC(F)(F)c1cccc(-c2cccc(-c3ccc(NC(=S)Nc4cc(Cl)nc(Cl)c4)cc3)n2)c1` [Compound 10], the inhibition at 0.9 µM [1] is reported as 10 to 39%, the inhibition at 2.7 µM [1] is reported as 40 to 70% and the inhibition at 8.1 µM [1] is reported as > 70%. It also gave an IC50 [2] of 0.31 to 2.5 µM.
An inhibition at 0.9 µM [1] of 10 to 39%, an inhibition at 2.7 µM [1] of 10 to 39% and an inhibition at 8.1 µM [1] of 40 to 70% were found for `O=C(Nc1ccc(-c2cccc(-c3ccncc3)n2)cc1)Nc1ccc(Cl)c(C(F)(F)F)c1` [Compound 12] in this work. For the same compound, the IC50 [2] was 0.31 to 2.5 µM.
`O=C(Nc1cccc(-c2ccnc(-c3cccc(C(F)(F)F)c3)n2)c1)c1cc(Cl)nc(Cl)c1` [Compound 5] was tested, and the inhibition at 0.9 µM [1] was < 10%, the inhibition at 2.7 µM [1] was 10 to 39% and the inhibition at 8.1 µM [1] was < 10%. It also gave an IC50 [2] of 0.31 to 2.5 µM.
`N#Cc1cccc(-c2cccc(-c3ccc(NC(=S)Nc4cc(Cl)nc(Cl)c4)cc3)n2)c1` [Compound 11] was tested, and the inhibition at 0.9 µM [1] was 10 to 39%, the inhibition at 2.7 µM [1] was 40 to 70% and the inhibition at 8.1 µM [1] was > 70%. The IC50 [2] was 0.31 to 2.5 µM.
In the case of `O=C(Nc1ccc(-c2nc(-c3ccccc3)ncc2Cl)cc1)Nc1cc(Cl)nc(Cl)c1` [Compound 15], the inhibition at 0.9 µM [1] is reported as < 10%, the inhibition at 2.7 µM [1] is reported as 10 to 39% and the inhibition at 8.1 µM [1] is reported as > 70%. The IC50 [2] was < 0.31 µM.
In the case of `O=C(Nc1ccc(-c2ccnc(-c3ccncc3)n2)cc1)Nc1ccc(Cl)c(C(F)(F)F)c1` [Compound 6], the inhibition at 0.9 µM [1] is reported as < 10%, the inhibition at 2.7 µM [1] is reported as 10 to 39% and the inhibition at 8.1 µM [1] is reported as 10 to 39%. It also gave an IC50 [2] of 0.31 to 2.5 µM.
`O=C(Nc1cccc(-c2ccnc(-c3ccc(F)c(F)c3)n2)c1)Nc1cc(Cl)nc(Cl)c1` [Compound 4] was tested, and the inhibition at 0.9 µM [1] was < 10%, the inhibition at 2.7 µM [1] was 10 to 39% and the inhibition at 8.1 µM [1] was 40 to 70%. For the same compound, the IC50 [2] was 0.31 to 2.5 µM.
In the case of `O=C(Nc1ccc(-c2cccc(-c3cccc(C(F)(F)F)c3)n2)cc1)Nc1cc(Cl)nc(Cl)c1` [Compound 9], the inhibition at 0.9 µM [1] is reported as 10 to 39%, the inhibition at 2.7 µM [1] is reported as 10 to 39% and the inhibition at 8.1 µM [1] is reported as > 70%. It also gave an IC50 [2] of 0.31 to 2.5 µM.
In the case of `O=C(Nc1cccc(-c2ccnc(-c3ccnc(Cl)c3)n2)c1)Nc1cc(Cl)nc(Cl)c1` [Compound 1], the inhibition at 0.9 µM [1] is reported as < 10%, the inhibition at 2.7 µM [1] is reported as 10 to 39% and the inhibition at 8.1 µM [1] is reported as > 70%. For the same compound, the IC50 [2] was 0.31 to 2.5 µM.

Reference: patent US20250197373A1, “SMALL MOLECULE COMPOUND OR SALT THEREOF OR SOLVATE OF THEM, GUANINE NUCLEOTIDE-BINDING PROTEIN G(Q) SUBUNIT ALPHA (GNAQ) INHIBITOR CONTAINING THE SAME AND METHOD FOR TREATING AND/OR PREVENTING CANCER” (INDUSTRIAL TECHNOLOGY RESEARCH INSTITUTE, priority 2023, published 2025)
